Series [1] concerns the target T1, Amine oxidase [flavin-containing] B (Homo sapiens, UniProt P27338).
T1 sequence (P27338 whole entry): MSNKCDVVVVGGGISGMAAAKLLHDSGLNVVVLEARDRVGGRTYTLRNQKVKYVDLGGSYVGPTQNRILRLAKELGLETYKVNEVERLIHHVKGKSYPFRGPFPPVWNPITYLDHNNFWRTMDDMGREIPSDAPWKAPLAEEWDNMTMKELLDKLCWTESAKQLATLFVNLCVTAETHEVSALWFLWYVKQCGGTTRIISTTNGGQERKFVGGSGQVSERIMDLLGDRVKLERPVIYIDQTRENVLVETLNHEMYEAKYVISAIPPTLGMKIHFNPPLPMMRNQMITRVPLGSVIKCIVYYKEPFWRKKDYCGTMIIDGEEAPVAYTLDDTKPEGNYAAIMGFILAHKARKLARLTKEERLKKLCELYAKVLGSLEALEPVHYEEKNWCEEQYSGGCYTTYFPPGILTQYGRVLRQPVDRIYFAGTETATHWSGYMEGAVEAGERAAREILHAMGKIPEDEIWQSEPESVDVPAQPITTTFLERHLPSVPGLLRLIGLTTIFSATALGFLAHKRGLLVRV
Kind of series: Inhibition of recombinant human MAO-B expressed in baculovirus infected BTI insect cells using p-tyramine as substrate preincubated for 30 mins followed by substrate addition and measured after 1 hr by fluorimetric analysis.

Series [2] can be described thus: Half life in Wistar rat at 3 mg/kg, po measured up to 240 mins. It is filed as ADME, organism-based. Conditions: in vivo.
Another series concerns the target T2, muscarinic M1 receptor (Homo sapiens, UniProt P11229).
T2 sequence (P11229 whole entry): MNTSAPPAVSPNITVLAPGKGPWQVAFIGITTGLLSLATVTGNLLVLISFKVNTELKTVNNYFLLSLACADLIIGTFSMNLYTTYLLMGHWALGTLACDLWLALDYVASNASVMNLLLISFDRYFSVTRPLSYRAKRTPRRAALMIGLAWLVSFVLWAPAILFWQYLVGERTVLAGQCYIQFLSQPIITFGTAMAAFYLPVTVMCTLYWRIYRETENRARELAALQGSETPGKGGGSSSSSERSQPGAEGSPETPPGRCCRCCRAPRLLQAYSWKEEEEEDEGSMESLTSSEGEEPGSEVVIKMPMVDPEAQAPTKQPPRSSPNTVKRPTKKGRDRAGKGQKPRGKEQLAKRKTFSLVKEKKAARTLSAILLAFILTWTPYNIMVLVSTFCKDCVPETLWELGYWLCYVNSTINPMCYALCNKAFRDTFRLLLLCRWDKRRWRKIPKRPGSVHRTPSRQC
The series is described as follows: Displacement of [3H]pirenzepine from human recombinant muscarinic M1 receptor at 1 uM after 60 mins by radiometric scintillation analysis relative to control. The settings on record: probe [3H]pirenzepine. For orientation: Loss of bound radioactivity is the signal in a displacement assay; it reports binding, not function.

The target of series [3] is T1, Amine oxidase [flavin-containing] B. The settings on record: BTI, 1 h, read-out: INH.
Description: Inhibition of recombinant human MAO-B expressed in baculovirus infected BTI insect cells at 1 uM using p-tyramine as substrate preincubated for 30 mins followed by substrate addition and measured after 1 hr by fluorimetric analysis relative to control
Series [4] in a line: Cytotoxicity against mouse C8D1A astrocytes upto 25 uM by LDH assay. Conditions: astrocyte.
In the next series the target is histamine H1 receptor (Homo sapiens, UniProt P35367). Kind of series: Displacement of [3H]pyrilamine from human recombinant histamine H1 receptor at 1 uM after 60 mins by radiometric scintillation analysis relative to control. Conditions: probe [3H]pyrilamine.
Series [5] in a line: Tmax in Wistar rat at 3 mg/kg, po measured up to 240 mins. It is filed as ADME, organism-based. Conditions: in vivo.
Series [6] has as its target T3, adrenergic alpha1A receptor (Homo sapiens, UniProt P35348).
T3 sequence (P35348 whole entry): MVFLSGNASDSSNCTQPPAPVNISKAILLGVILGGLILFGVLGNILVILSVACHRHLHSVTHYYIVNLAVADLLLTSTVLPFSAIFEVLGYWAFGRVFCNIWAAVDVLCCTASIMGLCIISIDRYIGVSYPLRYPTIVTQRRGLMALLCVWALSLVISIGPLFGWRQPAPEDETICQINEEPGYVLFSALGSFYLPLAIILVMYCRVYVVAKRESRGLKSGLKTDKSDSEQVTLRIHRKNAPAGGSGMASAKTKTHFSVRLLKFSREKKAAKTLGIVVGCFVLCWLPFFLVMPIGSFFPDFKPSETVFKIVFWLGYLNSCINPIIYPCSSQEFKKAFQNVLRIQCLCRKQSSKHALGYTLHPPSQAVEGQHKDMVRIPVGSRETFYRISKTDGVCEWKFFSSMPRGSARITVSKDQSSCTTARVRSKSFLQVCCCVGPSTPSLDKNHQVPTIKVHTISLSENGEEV
Kind of series: Displacement of [3H]-prazosin from human recombinant adrenergic alpha1A receptor at 1 uM incubated for 60 mins by radiometric scintillation analysis relative to control. The settings on record: probe [3H]-prazosin.

The target of series [7] is T4, Amine oxidase [flavin-containing] A (Homo sapiens, UniProt P21397).
T4 sequence (P21397 whole entry): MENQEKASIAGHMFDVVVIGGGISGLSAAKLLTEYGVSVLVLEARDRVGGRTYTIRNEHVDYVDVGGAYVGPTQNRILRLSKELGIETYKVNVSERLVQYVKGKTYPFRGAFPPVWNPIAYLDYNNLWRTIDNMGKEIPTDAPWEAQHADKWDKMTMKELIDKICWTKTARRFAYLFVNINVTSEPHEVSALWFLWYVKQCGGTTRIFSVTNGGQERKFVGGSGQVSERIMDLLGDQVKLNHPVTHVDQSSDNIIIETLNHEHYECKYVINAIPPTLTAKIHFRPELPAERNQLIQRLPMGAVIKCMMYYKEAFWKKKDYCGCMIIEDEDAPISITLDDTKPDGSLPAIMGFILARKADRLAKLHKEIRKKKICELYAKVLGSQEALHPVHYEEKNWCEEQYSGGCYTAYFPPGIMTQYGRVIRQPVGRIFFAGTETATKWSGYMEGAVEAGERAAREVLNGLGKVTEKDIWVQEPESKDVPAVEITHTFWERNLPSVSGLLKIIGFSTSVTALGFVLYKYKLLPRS
The series is described as follows: Inhibition of recombinant human MAO-A expressed in baculovirus infected BTI insect cells using p-tyramine as substrate preincubated for 30 mins followed by substrate addition and measured after 1 hr by fluorimetric analysis.

In series [8] the target is 5-hydroxytryptamine receptor 2A (Homo sapiens, UniProt P28223). Kind of series: Displacement of [3H]-Ketanserin from human 5HT2A receptor expressed in CHOK1 cells incubated at 27 degree C for 1 hr by microbeta plate reader analysis. It is filed as cell-based, CHO-K1.
The nature of series [9]: Metabolic stability in rat liver microsomes assessed as intrinsic clearance at 10 uM incubated for 10 mins followed by NADPH regeneration system addition and measured after 60 mins by UPLC-MS analysis. It is filed as ADME, Microsome. The settings on record: time 70 min, read-out: CLH.
In the next series the target is D(2) dopamine receptor (Homo sapiens, UniProt P14416). The series is described as follows: Displacement of [3H]-raclopride from human D2 receptor expressed in HEK293 cells measured after 1 hr by microbeta plate reader analysis. It is filed as cell-based.
Series [10] in a line: Effective permeability of compound in PBS at pH 7.4 at 100 uM incubated for 5 hrs by PAMPA-BBB based UPLC-MS analysis. It is filed as ADME. Conditions: read-out: Peff.
Series [11] addresses 5-hydroxytryptamine receptor 7 (Homo sapiens, UniProt P34969). The series is described as follows: Displacement of [3H]-5-CT from human 5HT7 receptor expressed in HEK293 cells measured after 1 hr by microbeta plate reader analysis. It is filed as cell-based.
Another series concerns the target beta1 adrenoceptor (Homo sapiens, UniProt P08588). The series is described as follows: Displacement of [3H](-)CGP 12177 from human recombinant beta1 adrenoceptor at 1 uM after 60 mins by radiometric scintillation analysis relative to control. The settings on record: probe [3H](-)CGP 12177.
Series [12] has as its target T5, 5-hydroxytryptamine receptor 1A (Homo sapiens, UniProt P08908).
T5 sequence (P08908 whole entry): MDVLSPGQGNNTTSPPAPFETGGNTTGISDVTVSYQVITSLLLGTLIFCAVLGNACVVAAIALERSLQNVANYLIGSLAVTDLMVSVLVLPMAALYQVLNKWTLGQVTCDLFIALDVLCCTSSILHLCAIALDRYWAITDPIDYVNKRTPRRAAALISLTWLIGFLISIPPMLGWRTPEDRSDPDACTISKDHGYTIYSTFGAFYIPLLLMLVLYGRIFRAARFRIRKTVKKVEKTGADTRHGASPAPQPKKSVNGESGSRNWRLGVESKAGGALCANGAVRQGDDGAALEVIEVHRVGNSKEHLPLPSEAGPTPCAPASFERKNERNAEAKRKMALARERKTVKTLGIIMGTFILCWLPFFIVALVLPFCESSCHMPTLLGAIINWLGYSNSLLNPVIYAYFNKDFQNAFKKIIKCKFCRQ
The series is described as follows: Displacement of [3H]8-OH-DPAT from human 5HT1A receptor expressed in HEK293 cells incubated at room temperature for 1 hr by microbeta plate reader analysis. The class given is cell-based.

Series [13] can be described thus: Cytotoxicity against mouse C8D1A astrocytes upto 25 uM by MTT assay. The settings on record: astrocyte. A general note: Formazan colour is commonly taken as a measure of viable cells.
Series [14] in a line: Cmax in Wistar rat at 3 mg/kg, po measured up to 240 mins. The class given is ADME, organism-based. More on the design: route oral, dose 3 mg/kg, time <=240. Conditions: in vivo.

Molecules are shown by their SMILES. pIC50, pKi: −log10 of the molar value.

The pIC50 is −log10 of the IC50, conventionally taken in molar units. For orientation: half-life means how long it takes for the measured level to halve. The Tmax is the time from dosing to the highest level. One may read the pKi as −log10 of the Ki, conventionally taken in molar units. As usually defined, the Cmax is the highest concentration seen after dosing.

5-hydroxytryptamine receptor 2A, sequence (P28223 whole entry): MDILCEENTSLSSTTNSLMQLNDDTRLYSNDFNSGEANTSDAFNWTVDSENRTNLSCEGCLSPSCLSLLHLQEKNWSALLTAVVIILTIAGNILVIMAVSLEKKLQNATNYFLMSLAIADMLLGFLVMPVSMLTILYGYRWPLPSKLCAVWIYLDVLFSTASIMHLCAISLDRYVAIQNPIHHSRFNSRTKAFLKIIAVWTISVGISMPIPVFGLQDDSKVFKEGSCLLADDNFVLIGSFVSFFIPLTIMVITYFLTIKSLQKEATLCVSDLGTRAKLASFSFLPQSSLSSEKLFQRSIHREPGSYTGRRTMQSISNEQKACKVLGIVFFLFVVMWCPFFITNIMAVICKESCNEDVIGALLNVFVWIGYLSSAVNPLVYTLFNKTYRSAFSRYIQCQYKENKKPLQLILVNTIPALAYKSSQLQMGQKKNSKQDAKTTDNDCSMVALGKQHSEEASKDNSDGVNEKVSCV
beta1 adrenoceptor, sequence (P08588 whole entry): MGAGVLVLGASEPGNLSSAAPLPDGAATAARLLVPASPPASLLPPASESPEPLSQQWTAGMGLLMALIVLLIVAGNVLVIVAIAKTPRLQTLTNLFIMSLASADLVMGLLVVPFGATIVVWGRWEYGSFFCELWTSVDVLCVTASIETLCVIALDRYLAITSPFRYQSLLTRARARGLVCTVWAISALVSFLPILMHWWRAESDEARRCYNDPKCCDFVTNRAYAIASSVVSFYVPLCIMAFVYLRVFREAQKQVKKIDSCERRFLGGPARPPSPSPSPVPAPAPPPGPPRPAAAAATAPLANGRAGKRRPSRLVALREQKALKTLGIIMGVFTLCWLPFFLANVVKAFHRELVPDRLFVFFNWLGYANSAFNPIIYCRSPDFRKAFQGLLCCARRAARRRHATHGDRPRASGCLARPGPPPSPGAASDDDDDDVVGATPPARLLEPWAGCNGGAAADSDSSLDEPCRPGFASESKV
5-hydroxytryptamine receptor 7, sequence (P34969 whole entry): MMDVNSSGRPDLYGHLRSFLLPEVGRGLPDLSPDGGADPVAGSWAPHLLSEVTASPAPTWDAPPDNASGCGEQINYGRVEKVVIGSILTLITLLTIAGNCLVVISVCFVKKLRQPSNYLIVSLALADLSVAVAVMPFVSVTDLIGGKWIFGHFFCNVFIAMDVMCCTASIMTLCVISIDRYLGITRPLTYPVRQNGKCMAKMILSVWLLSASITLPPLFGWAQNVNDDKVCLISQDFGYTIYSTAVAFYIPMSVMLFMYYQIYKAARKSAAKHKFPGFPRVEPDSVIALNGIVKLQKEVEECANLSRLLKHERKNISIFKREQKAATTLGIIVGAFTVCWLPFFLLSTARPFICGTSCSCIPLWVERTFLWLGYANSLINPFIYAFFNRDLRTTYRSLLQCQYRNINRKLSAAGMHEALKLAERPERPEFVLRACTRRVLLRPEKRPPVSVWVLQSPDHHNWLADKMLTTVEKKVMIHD
D(2) dopamine receptor, sequence (P14416 whole entry): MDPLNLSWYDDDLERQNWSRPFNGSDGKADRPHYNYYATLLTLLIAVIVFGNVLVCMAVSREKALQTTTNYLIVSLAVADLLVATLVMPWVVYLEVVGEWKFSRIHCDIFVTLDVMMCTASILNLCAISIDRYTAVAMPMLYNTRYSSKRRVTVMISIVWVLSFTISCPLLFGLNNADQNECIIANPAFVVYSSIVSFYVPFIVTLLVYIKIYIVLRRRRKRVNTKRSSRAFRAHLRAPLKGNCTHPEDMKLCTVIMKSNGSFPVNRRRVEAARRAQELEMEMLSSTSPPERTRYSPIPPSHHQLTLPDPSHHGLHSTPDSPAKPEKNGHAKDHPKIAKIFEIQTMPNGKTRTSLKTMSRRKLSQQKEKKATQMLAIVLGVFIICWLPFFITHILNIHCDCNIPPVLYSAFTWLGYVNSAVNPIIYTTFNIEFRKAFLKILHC
histamine H1 receptor, sequence (P35367 whole entry): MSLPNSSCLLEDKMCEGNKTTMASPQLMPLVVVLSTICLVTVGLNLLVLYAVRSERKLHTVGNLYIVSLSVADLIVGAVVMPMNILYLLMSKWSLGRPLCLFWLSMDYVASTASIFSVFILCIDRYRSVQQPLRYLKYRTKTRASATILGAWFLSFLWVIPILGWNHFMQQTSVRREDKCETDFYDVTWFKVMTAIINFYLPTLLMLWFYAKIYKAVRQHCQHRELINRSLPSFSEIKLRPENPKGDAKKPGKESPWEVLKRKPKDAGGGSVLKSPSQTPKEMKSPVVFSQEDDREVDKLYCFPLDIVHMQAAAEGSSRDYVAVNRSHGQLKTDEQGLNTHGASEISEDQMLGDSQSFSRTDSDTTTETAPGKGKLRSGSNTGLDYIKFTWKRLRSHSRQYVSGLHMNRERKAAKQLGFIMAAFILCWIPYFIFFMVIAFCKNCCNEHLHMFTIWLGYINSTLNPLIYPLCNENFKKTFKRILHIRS

For `C#CCN(C)Cc1ccc(OCCCCCN2CCN(c3cccc4c3ccn4S(=O)(=O)c3ccccc3)CC2)cc1`, the values for the pIC50 in series [1] and in series [7] were 6.81 and 5.98, respectively. Moreover, in series [2], the half-life is 28 h. Besides, the inhibition at 1 h, 1 µM on muscarinic M1 receptor is 4%; on histamine H1 receptor, 13%; in series [6] it was 37%; on beta1 adrenoceptor, 5%. In addition, the inhibition at 1 µM in series [3] came to 91%. The Activity result in series [4] and in [13] was “Non-Toxic” in each case. Besides, in series [5], the Tmax is 0.5 h. In addition, the pKi in series [8] is 6.38; on D(2) dopamine receptor, 6.09; in [11] it was 5.10; in [12], 6.16. Moreover, in series [9], the CLint scaled at 10 µM was found to be 85 mL/min/kg. Further, the Papp at 5 h, 100 µM in [10] was found to be 4.84 ×10⁻⁶ cm/s. Also, the Cmax in [14] came out at 72.7 ng/mL.

The values are drawn from ChEMBL document CHEMBL4706587 (Eur J Med Chem, 2020).
